Measurements from ChEMBL document CHEMBL1153021, “Phenylphenalenones from the Australian plant Haemodorum simplex” (J Nat Prod, 2009).

Legend:
P388 = experiment: Cytotoxicity against mouse P388 cells after 72 hrs by MTT assay; format: functional, cell-based; settings: P388, 72 h
[1] = system: Trichophyton mentagrophytes; experiment: Antifungal activity against Trichophyton mentagrophytes ATCC 28185 at 100 IU; format: functional, organism-based
Amorphotheca resinae = experiment: Antifungal activity against Cladosporium resinae at 100 IU; format: functional, organism-based
Bacillus subtilis = experiment: Antibacterial activity against Bacillus subtilis ATCC 19659 at 30 ug; format: functional; settings: read-out: IZ

| Compound | IC50 (P388) [µM] | other results |
| --- | --- | --- |
| COc1cc2c3c(ccc(-c4ccccc4)c3c1O[C@@H]1O[C@H](CO)[C@@H](O)[C@H](O)[C@H]1O)C(=O)OC2 [HAEMODOROSE] | > 26 |  |
| COc1c(O)cc2c3c(ccc(-c4ccc(O)cc4)c13)C(=O)OC2=O [HAEMODOROL] | > 26 |  |
| NYSTATIN |  | inhibition zone (IZ) [1]: 6 mm; inhibition zone (IZ) (Amorphotheca resinae): 10 mm |
| COc1cc2c3c(ccc(-c4ccccc4)c3c1OC)C(=O)OC2=O | > 26 |  |
| COC1=Cc2cc(OC)c(O)c3c(-c4ccccc4)ccc(c23)C1=O [XIPHIDONE] | > 26 |  |
| O=C(N[C@H](CO)[C@H](O)c1ccc([N+](=O)[O-])cc1)C(Cl)Cl [CHLORAMPHENICOL] |  | zone of inhibition at 30 µg/disc (Bacillus subtilis): 12 mm |
| COc1c(O)cc2c3c(ccc(-c4ccccc4)c13)C(=O)OC2=O [HAEMODORONE] | > 26 |  |
| COC1=Cc2cc(O)c(O[C@@H]3O[C@H](CO)[C@@H](O)[C@H](O)[C@H]3O)c3c(-c4ccccc4)ccc(c23)C1=O [DILATRIN] | > 26 |  |
